The values below come from US11155551B2, “Nicotinic acetylcholine receptor silent agonists” (University of Florida Research Foundation, Inc., priority 2015, dated 2021).

Each structure is given as a SMILES string.

This experiment concerns the target T1, human α7 nAChR (Homo sapiens, UniProt P36544).
T1 construct: expressed in transfected cells; host or cells: Xenopus oocytes
The experiment in a line: Two-electrode voltage clamping of human α7 nAChR expressed in Xenopus oocytes (net-charge / peak current relative to 60 μM ACh). To be noted: for Potentiated response: 30 μM test compound + 10 μM PNU-120596 co-application; for Potentiated response / Relative response: relative to 60 μM ACh control, mean ± SEM, N ≥ 4; for Relative response: net-charge response to 30 μM test compound alone; for functional classification at α7 nAChR: 30 μM alone and with 10 μM PNU-120596, partial agonist = net charge > 1/10th ACh control; for PNU Response: 30 μM compound + 10 μM PNU-120596, relative to 60 μM ACh controls (n ≥ 4); for Net Charge / Peak current: 30 μM compound alone, relative to 60 μM ACh controls (n ≥ 4); for Ratio (peak current to net charge): 30 μM, normalized peak current / normalized net charge; for Estimated Rank efficacy / Estimated Rank potency: rank among six partial agonists; for Estimated Rank potency: from peak-current-to-net-charge ratio; for PAM-dependent currents relative to ACh: co-application with PNU-120596, meta-substituted series. The experiment is classed as cell-based. The procedure:
Electrophysiology: The panel of compounds synthesized was assayed using human α7 nAChR expressed in Xenopus oocytes and two-electrode voltage clamping. The partial agonism activity was evaluated, quantified as net-charge for 30 μM applications of compounds, measured relative to the control response to applications of 60 μM ACh. The induction of PAM-sensitive desensitization was detected as the net-charge responses when compounds were co-applied with the PAM PNU-120596 (30 μM compound+10 μM PNU-120596), measured relative to responses to 60 μM ACh applied alone. […] It is a unique property of α7 orthosteric agonist-induced currents that they vary systematically in the relationship between peak current and net charge as a function of the effective concentration applied (Papke & Papke (2002) Br. J. Pharm. 137: 49-61; Papke & Thinschmidt (1998) Neurosci. Let. 256: 163-166). This was due to the concentration-dependent desensitization of the receptors, which is likely to be associated with high levels of agonist binding site occupancy (Williams et al., (2011) J. Gen. Physiol. 137: 369-384) and is observed even when agonists are rapidly applied to small cells (Williams et al., (2012) Mol. Pharmacol. 82: 746-759) or acutely dissociated neurons (Uteshev et al., (2002) Brain Res. 948: 33-46). The control ACh concentration used for these experiments is roughly the EC80 for the net-charge responses.
By normalizing both the peak currents and net-charge measurements of the drug responses at the probe concentration of 30 μM (FIG. 3B) to those of the ACh control, the relationship between the probe concentration and the EC for each of the drugs was estimated (Papke, R. L. (2005) Life Sci.). At a concentration where the ratio of the normalized measures equaled one, the drug would be at the same effective concentration as 60 μM ACh.
Electrophysiology: New compounds were assayed for activity with the α7 nAChR expressed in Xenopus oocytes using two-electrode voltage clamping as previously described in Papke et al., (2014) J. Pharmacol. Experimental Therap. 350: 665-680, incorporated herein by reference in its entirety, and compared to responses evoked by 60 μM Ach (FIGS. 5 and 6). The compound set was assayed at a concentration of 30 μM to provide a standard comparison benchmark.
Based on earlier experience this concentration is high enough to provide an observable response and low enough to avoid possible complications such as channel block. The net-charge response for each compound application is reported relative to those for ACh control applications. Data were expressed as the mean ±S.E.M. from at least four oocytes for each experiment and were plotted by Kaleidagraph (Abelbeck Software, Reading, Pa.).

T1 sequence (P36544 23-502): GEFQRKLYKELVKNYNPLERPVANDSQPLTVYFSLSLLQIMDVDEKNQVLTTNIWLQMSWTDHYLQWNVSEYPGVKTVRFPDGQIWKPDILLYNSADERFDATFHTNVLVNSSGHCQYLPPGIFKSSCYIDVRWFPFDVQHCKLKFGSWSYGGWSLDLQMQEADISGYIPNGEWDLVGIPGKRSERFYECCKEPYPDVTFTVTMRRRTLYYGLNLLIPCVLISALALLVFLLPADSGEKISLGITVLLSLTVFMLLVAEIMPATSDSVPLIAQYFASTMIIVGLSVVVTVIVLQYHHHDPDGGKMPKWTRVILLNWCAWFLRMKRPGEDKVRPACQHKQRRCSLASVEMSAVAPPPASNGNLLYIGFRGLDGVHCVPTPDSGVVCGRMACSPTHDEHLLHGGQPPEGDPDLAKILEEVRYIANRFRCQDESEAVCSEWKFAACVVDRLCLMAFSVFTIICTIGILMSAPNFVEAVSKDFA

`CCN1CCN(c2cccc(Cl)c2)CC1` [Compound 1f, 1-(3-chlorophenyl)-4-ethylpiperazine]: the Potentiated response is on record as 0.1 ± 0.1 and the Relative response is 0.009 ± 0.008.
In the case of `CCN1CCN(c2cccc(Br)c2)CC1` [Compound 1p, 1-(3-bromophenyl)-4-ethylpiperazine], the “functional classification at α7 nAChR” value is recorded as “modest silent agonism”, the Potentiated response was 6.9±2.4 and the Relative response amounted to 0.000 ± 0.003. Under “PAM co-application response”, the “response relative to diEPP” value is listed as “approximately 5 fold” and the “response relative to its corresponding quaternary salt 2p” value is 0.69 fold.
In the case of `CC[N+]1(CC)CCN(c2ccc(C#N)cc2)CC1.[I-]` [Compound 2b, 4-(4-cyanophenyl)-1,1-diethylpiperazin-1-ium iodide], the “functional classification at α7 nAChR” value is “partial agonists”, the “PNU Response” value is 68 ± 25, the “Net Charge” value was 0.23 ± 0.02 and the Peak current is listed as 0.10 ± 0.01. Besides, the Potentiated response amounted to 68.0 ± 25.4, the “Ratio (peak current to net charge)” value came to 0.43, the Relative response amounted to 0.234 ± 0.024 and the “Estimated Rank efficacy” value is reported as 3. The “Estimated Rank potency” value was 6.
On to `CC[N+]1(CC)CCN(c2ccc(OC)cc2)CC1.[I-]` [Compound 2c, 1,1-diethyl-4-(4-methoxyphenyl)piperazin-1-ium iodide], for which the “functional classification at α7 nAChR” value is listed as “candidate silent agonists”, the Potentiated response is on record as 11.6 ± 0.3 and the Relative response amounted to 0.063 ± 0.014.
Turning to `CC[N+]1(CC)CCN(c2ccc(Cl)cc2)CC1.[I-]` [Compound 2e, 4-(4-chlorophenyl)-1,1-diethylpiperazin-1-ium iodide], the “functional classification at α7 nAChR” value is “partial agonists”, the “PNU Response” value is recorded as 18 ± 6, the “Net Charge” value amounted to 0.23 ± 0.05 and the Peak current was found to be 0.17 ± 0.02. The Potentiated response is given as 18.3 ± 6.2, the “Ratio (peak current to net charge)” value came out at 0.71, the Relative response worked out at 0.234 ± 0.048 and the “Estimated Rank efficacy” value is recorded as 5. Besides, the “Estimated Rank potency” value is 1.
Consider `CC[N+]1(CC)CCN(c2cccc(Cl)c2)CC1.[I-]` [Compound 2f, 4-(3-chlorophenyl)-1,1-diethylpiperazin-1-ium iodide], for which the “functional classification at α7 nAChR” value was “candidate silent agonists”, the Potentiated response was determined as 4.2 ± 1.0, the “PAM-dependent currents relative to ACh” value is 4.23 fold and the Relative response is 0.020 ± 0.003.
Turning to `CC[N+]1(CC)CCN(c2ccccc2C)CC1.[I-]` [Compound 2h, 1,1-diethyl-4-o-tolylpiperazin-1-ium iodide], the “functional classification at α7 nAChR” value is given as “partial agonists”, the “PNU Response” value is on record as 16 ± 2, the “Net Charge” value is listed as 0.32 ± 0.07 and the Peak current stood at 0.15 ± 0.02. For the same molecule, the Potentiated response is on record as 16.4 ± 2.4, the “Ratio (peak current to net charge)” value was 0.46, the Relative response amounted to 0.319 ± 0.066 and the “Estimated Rank efficacy” value is on record as 1. For the same molecule, the “Estimated Rank potency” value is 5.
On to `CC[N+]1(CC)CCN(c2cccc(C#N)c2)CC1.[I-]` [Compound 2i, 4-(3-cyanophenyl)-1,1-diethylpiperazin-1-ium iodide], for which the “functional classification at α7 nAChR” value was “no significant activity as either partial agonists or as silent agonists”, the Potentiated response amounted to 1.5 ± 0.7 and the Relative response is listed as 0.022 ± 0.024. The “PAM-dependent response compared to the parent diEPP” value (co-application with PNU-120596) was “equivalent”.
Consider `CC[N+]1(CC)CCN(c2ccccc2Cl)CC1.[I-]` [Compound 2j, 4-(2-chlorophenyl)-1,1-diethylpiperazin-1-ium iodide], for which the “functional classification at α7 nAChR” value is “partial agonists”, the “PNU Response” value is reported as 37 ± 6, the “Net Charge” value worked out at 0.37 ± 0.05 and the Peak current is given as 0.23 ± 0.03. The Potentiated response worked out at 36.6 ± 6.1, the “Ratio (peak current to net charge)” value is recorded as 0.63, the Relative response stood at 0.367 ± 0.054 and the “Estimated Rank efficacy” value is on record as 2. In addition, the “Estimated Rank potency” value is listed as 4.
With `CC[N+]1(CC)CCN(c2cccc(O)c2)CC1.[I-]` [Compound 2k, 1,1-diethyl-4-(3-hydroxyphenyl)piperazin-1-ium iodide], the “functional classification at α7 nAChR” value is “partial agonists”, the “PNU Response” value turned out to be 31 ± 5, the “Net Charge” value came to 0.28 ± 0.02 and the Peak current was 0.19 ± 0.02. In addition, the Potentiated response was determined as 31.4 ± 5.1, the “Ratio (peak current to net charge)” value is on record as 0.67, the Relative response worked out at 0.283 ± 0.013 and the “Estimated Rank efficacy” value was 4. For the same molecule, the “Estimated Rank potency” value is reported as 3.
With `CC[N+]1(CC)CCN(c2ccc(OC)cc2OC)CC1.[I-]` [Compound 2l, 4-(2,4-dimethoxyphenyl)-1,1-diethylpiperazin-1-ium iodide], the “functional classification at α7 nAChR” value is listed as “not a partial agonist”, the Potentiated response is recorded as 1.1 ± 0.1 and the Relative response is reported as 0.014 ± 0.009.
On to `CC[N+]1(CC)CCN(c2ccc3ccccc3c2)CC1.[I-]` [Compound 2m, 1,1-diethyl-4-(naphthalen-2-yl)piperazin-1-ium iodide], for which the “functional classification at α7 nAChR” value is “partial agonist”, the “PNU Response” value was 16 ± 2, the “Net Charge” value came to 0.14 ± 0.02 and the Peak current was 0.10 ± 0.02. In addition, the Potentiated response is given as 15.9 ± 2.3, the “Ratio (peak current to net charge)” value amounted to 0.71, the Relative response is 0.143 ± 0.018 and the “Estimated Rank efficacy” value is given as 6. Further, the “Estimated Rank potency” value was 1.
For `CC[N+]1(CC)CCN(c2cccc(C(F)(F)F)c2)CC1.[I-]` [Compound 2o, 1,1-diethyl-4-(3-(trifluoromethyl)phenyl)piperazin-1-ium iodide], the “functional classification at α7 nAChR” value is “candidate silent agonists”, the Potentiated response is on record as 3.1 ± 2.1 and the Relative response is recorded as 0.000 ± 0.002.
For `CC[N+]1(CC)CCN(c2ccc(Br)cc2)CC1.[I-]` [Compound 2q, 4-(4-bromophenyl)-1,1-diethylpiperazin-1-ium iodide], the Potentiated response stood at 12.3 ± 3.5 and the Relative response amounted to 0.270 ± 0.017.
Consider `CC[N+]1(CC)CCN(c2ccc(F)cc2)CC1.[I-]` [Compound 2r, 1,1-diethyl-4-(4-fluorophenyl)piperazin-1-ium iodide], for which the “functional classification at α7 nAChR” value was “candidate silent agonists”, the Potentiated response was found to be 22.9 ± 5.8 and the Relative response came to 0.010 ± 0.002.
As for `CC[N+]1(CC)CCN(c2cccc(F)c2)CC1.[I-]` [Compound 2s, 1,1-diethyl-4-(3-fluorophenyl)piperazin-1-ium iodide], the “functional classification at α7 nAChR” value is on record as “no significant activity as either partial agonists or as silent agonists”, the Potentiated response was 0.2 ± 0.1, the “PAM-dependent currents relative to ACh” value was 0.2 fold and the Relative response is 0.061 ± 0.089.
